{
  "source": "paper PMC11642016",
  "about": "(International Journal of Molecular Sciences, 2024)",
  "key": {"[1]": {"system": "non-tumorous primary fibroblast cells", "assay": "CellTiter-Glo luminescent cell viability assay, primary fibroblasts", "details": "for Primer fibroblast Cell viability (% of controll): 72 h, dose–response, individual replicates"}, "Fadu cells": {"system": "Fadu cells", "assay": "CellTiter-Glo luminescent cell viability assay, Fadu", "details": "for Fadu Cell viability (% of controll) / Cell Viability (% of Control) 2.8 µM / Cell Viability (% of Control) 8.3 µM / Cell Viability (% of Control) 25 µM: 72 h; for Fadu Cell viability (% of controll): dose–response, individual replicates; for Cell Viability (% of Control) 2.8 µM / Cell Viability (% of Control) 8.3 µM / Cell Viability (% of Control) 25 µM: Fadu, mean ± SD, n = 2"}, "PANC-1 cells": {"system": "PANC-1 cells", "assay": "CellTiter-Glo luminescent cell viability assay, PANC-1", "details": "for PANC-1 Cell viability (% of controll) / Cell Viability (% of Control) 2.8 µM / Cell Viability (% of Control) 8.3 µM / Cell Viability (% of Control) 25 µM: 72 h; for PANC-1 Cell viability (% of controll): dose–response, individual replicates; for Cell Viability (% of Control) 2.8 µM / Cell Viability (% of Control) 8.3 µM / Cell Viability (% of Control) 25 µM: PANC-1, mean ± SD, n = 2"}, "[2]": {"system": "PANC-1, Fadu, A2058 and EBC-1 cell lines", "design": "method as in PMID 35455465", "details": "10 µM; cited from earlier work"}, "PANC-1 and A2058 cells": {"system": "PANC-1 and A2058 cells", "design": "method as in PMID 35455465", "details": "24 h exposure time; cited from earlier work"}},
  "note": "Where “and” joins values, the source holds several entries; their conditions need not be identical. Equal entries are not always repeated. Where two headings read alike, the source gives them in different places.",
  "data": [
    {"smiles": "NCC#Cc1ccc(CN2C(=O)C3=C(CCN(Cc4ccc(-n5cc(-[c-]6cccc6)nn5)cc4)C3)N3CCN=C23)cc1.[Fe+2].c1cc[cH-]c1", "note": "[I/A, reference compound]", "values": [
      {"measurement": "Primer fibroblast Cell viability (% of controll)", "setting": "[1]; 0.7 μM", "result": "96 % of controll and 98 % of controll and 99 % of controll"},
      {"measurement": "Primer fibroblast Cell viability (% of controll)", "setting": "[1]; 1 μM", "result": "100 % of controll and 103 % of controll and 99 % of controll"},
      {"measurement": "Primer fibroblast Cell viability (% of controll)", "setting": "[1]; 1.5 μM", "result": "102 % of controll and 105 % of controll and 104 % of controll"},
      {"measurement": "Primer fibroblast Cell viability (% of controll)", "setting": "[1]; 2.3 μM", "result": "102 % of controll (2×) and 104 % of controll"},
      {"measurement": "Primer fibroblast Cell viability (% of controll)", "setting": "[1]; 3.4 μM", "result": "104 % of controll (2×) and 107 % of controll"},
      {"measurement": "Primer fibroblast Cell viability (% of controll)", "setting": "[1]; 5.1 μM", "result": "107 % of controll and 109 % of controll and 98 % of controll"},
      {"measurement": "Primer fibroblast Cell viability (% of controll)", "setting": "[1]; 7.7 μM", "result": "115 % of controll and 118 % of controll and 109 % of controll"},
      {"measurement": "Primer fibroblast Cell viability (% of controll)", "setting": "[1]; 17.3 μM", "result": "8 % of controll and 42 % of controll and 24 % of controll"},
      {"measurement": "Primer fibroblast Cell viability (% of controll)", "setting": "[1]; 26 μM", "result": "0 % of controll"},
      {"measurement": "IC50", "setting": "[1]; read-out: IC50 Value ± SEM Primary Fibroblast, 72 h treatment, best-fit values, n = 3", "result": "14.9 ± 0.46", "unit": "µM"},
      {"measurement": "IC50", "setting": "[1]; read-out: Primary fibroblast IC50 values, Mean, mean of independently fitted replicate IC50 values (Supplement S.6), ONC201 value mathematically estimated from inflection point", "result": 15.2, "unit": "µM"},
      {"measurement": "IC50", "setting": "[1]; read-out: Primary fibroblast IC50 values, individual replicates n1-n3, IC50 independently determined for each replicate (Supplement S.6), ONC201 value mathematically estimated from inflection point, viability stayed above 50%", "result": "13.9 µM and 14.9 µM and 16.8 µM"},
      {"measurement": "Fadu Cell viability (% of controll)", "setting": "Fadu cells; 0.7 μM", "result": "111 % of controll and 115 % of controll and 108 % of controll"},
      {"measurement": "Fadu Cell viability (% of controll)", "setting": "Fadu cells; 1 μM", "result": "110 % of controll and 112 % of controll and 109 % of controll"},
      {"measurement": "Fadu Cell viability (% of controll)", "setting": "Fadu cells; 1.5 μM", "result": "107 % of controll and 108 % of controll and 109 % of controll"},
      {"measurement": "Fadu Cell viability (% of controll)", "setting": "Fadu cells; 2.3 μM", "result": "109 % of controll (2×) and 104 % of controll"},
      {"measurement": "Fadu Cell viability (% of controll)", "setting": "Fadu cells; 3.4 μM", "result": "104 % of controll and 109 % of controll and 110 % of controll"},
      {"measurement": "Fadu Cell viability (% of controll)", "setting": "Fadu cells; 5.1 μM", "result": "105 % of controll and 106 % of controll and 102 % of controll"},
      {"measurement": "Fadu Cell viability (% of controll)", "setting": "Fadu cells; 7.7 μM", "result": "99 % of controll and 86 % of controll and 82 % of controll"},
      {"measurement": "Fadu Cell viability (% of controll)", "setting": "Fadu cells; 17.3 μM", "result": "5 % of controll and 0 % of controll and 1 % of controll"},
      {"measurement": "Fadu Cell viability (% of controll)", "setting": "Fadu cells; 26 μM", "result": "0 % of controll"},
      {"measurement": "Cell Viability (% of Control) 2.8 µM", "setting": "Fadu cells; first-set screening", "result": "105 ± 9 % of Control"},
      {"measurement": "Cell Viability (% of Control) 2.8 µM", "setting": "Fadu cells; second-set screening", "result": "105 ± 9 % of Control"},
      {"measurement": "Cell Viability (% of Control) 8.3 µM", "setting": "Fadu cells; first-set screening", "result": "66 ± 24 % of Control"},
      {"measurement": "Cell Viability (% of Control) 8.3 µM", "setting": "Fadu cells; second-set screening", "result": "66 ± 24 % of Control"},
      {"measurement": "Cell Viability (% of Control) 25 µM", "setting": "Fadu cells; first-set screening", "result": "0 ± 0 % of Control"},
      {"measurement": "Cell Viability (% of Control) 25 µM", "setting": "Fadu cells; second-set screening", "result": "0 ± 0 % of Control"},
      {"measurement": "Selectivity Index (SI) Fibroblast/Fadu", "setting": "Fadu cells; ratio of mean best-fit IC50 for primary fibroblasts and best-fit IC50 for Fadu", "result": 1.5},
      {"measurement": "IC50", "setting": "Fadu cells; read-out: Fadu IC50 values, Mean, mean of independently fitted replicate IC50 values (Supplement S.6)", "result": 10, "unit": "µM"},
      {"measurement": "IC50", "setting": "Fadu cells; read-out: Fadu IC50 values, individual replicates n1-n3, IC50 independently determined for each replicate measurement (Supplement S.6)", "result": "11.2 µM and 9.27 µM and 9.61 µM"},
      {"measurement": "IC50", "setting": "Fadu cells; read-out: IC50 Value ± SEM Fadu, 72 h treatment, best-fit values, n = 3", "result": "10 ± 0.23", "unit": "µM"},
      {"measurement": "PANC-1 Cell viability (% of controll)", "setting": "PANC-1 cells; 0.7 μM", "result": "106 % of controll and 102 % of controll and 107 % of controll"},
      {"measurement": "PANC-1 Cell viability (% of controll)", "setting": "PANC-1 cells; 1 μM", "result": "109 % of controll and 116 % of controll and 115 % of controll"},
      {"measurement": "PANC-1 Cell viability (% of controll)", "setting": "PANC-1 cells; 1.5 μM", "result": "110 % of controll and 105 % of controll and 115 % of controll"},
      {"measurement": "PANC-1 Cell viability (% of controll)", "setting": "PANC-1 cells; 2.3 μM", "result": "109 % of controll and 107 % of controll and 111 % of controll"},
      {"measurement": "PANC-1 Cell viability (% of controll)", "setting": "PANC-1 cells; 3.4 μM", "result": "108 % of controll and 109 % of controll and 112 % of controll"},
      {"measurement": "PANC-1 Cell viability (% of controll)", "setting": "PANC-1 cells; 5.1 μM", "result": "99 % of controll and 97 % of controll and 119 % of controll"},
      {"measurement": "PANC-1 Cell viability (% of controll)", "setting": "PANC-1 cells; 7.7 μM", "result": "93 % of controll and 79 % of controll and 109 % of controll"},
      {"measurement": "PANC-1 Cell viability (% of controll)", "setting": "PANC-1 cells; 17.3 μM", "result": "0 % of controll and 2 % of controll and 1 % of controll"},
      {"measurement": "PANC-1 Cell viability (% of controll)", "setting": "PANC-1 cells; 26 μM", "result": "0 % of controll"},
      {"measurement": "Cell Viability (% of Control) 2.8 µM", "setting": "PANC-1 cells; first-set screening", "result": "108 ± 4 % of Control"},
      {"measurement": "Cell Viability (% of Control) 2.8 µM", "setting": "PANC-1 cells; second-set screening", "result": "108 ± 4 % of Control"},
      {"measurement": "Cell Viability (% of Control) 8.3 µM", "setting": "PANC-1 cells; first-set screening", "result": "39 ± 7 % of Control"},
      {"measurement": "Cell Viability (% of Control) 8.3 µM", "setting": "PANC-1 cells; second-set screening", "result": "39 ± 7 % of Control"},
      {"measurement": "Cell Viability (% of Control) 25 µM", "setting": "PANC-1 cells; first-set screening", "result": "0 ± 0 % of Control"},
      {"measurement": "Cell Viability (% of Control) 25 µM", "setting": "PANC-1 cells; second-set screening", "result": "0 ± 0 % of Control"},
      {"measurement": "Selectivity Index (SI) Fibroblast/PANC-1", "setting": "PANC-1 cells; ratio of mean best-fit IC50 for primary fibroblasts and best-fit IC50 for PANC-1", "result": 1.4},
      {"measurement": "IC50", "setting": "PANC-1 cells; read-out: IC50 Value ± SEM PANC-1, 72 h treatment, best-fit values, n = 3", "result": "10.7 ± 0.31", "unit": "µM"},
      {"measurement": "IC50", "setting": "PANC-1 cells; read-out: PANC-1 IC50 values, Mean, mean of independently fitted replicate IC50 values (Supplement S.6)", "result": 10.6, "unit": "µM"},
      {"measurement": "IC50", "setting": "PANC-1 cells; read-out: PANC-1 IC50 values, individual replicates n1-n3, IC50 independently determined for each replicate measurement (Supplement S.6)", "result": "11.5 µM and 10.3 µM and 10.1 µM"},
      {"measurement": "viable cells after treatment in colony formation assays", "setting": "[2]", "result": "no viable cells could be observed"},
      {"measurement": "apoptosis induction", "setting": "PANC-1 and A2058 cells", "result": "far more efficient in apoptosis induction than ONC201"}
    ]}
  ]
}
